The values that follow come from patent US10603298B2, “Succinate dehydrogenase inhibitors (SDHi's)” (Medical Research Council, priority 2014, dated 2020).

The structures appear in SMILES notation.

The conditions of data set [1]: administered orally; cited from earlier work.
In data set [2] the test system is mouse heart IR injury (myocardial infarction). Briefly: In vivo mouse cardiac IR injury (LAD ligation), infarct size by triphenyltetrazolium chloride staining. The note with it: i.v. infusion 4 mg/kg/min prior to and throughout ischaemia. The procedure:
For the in vivo heart IR model an open-chest, in situ heart model was used^31,32. Male mice (8-10 weeks; Charles River Laboratories, UK) were anaesthetised with sodium pentobarbital (70 mg/kg intraperitoneally (i.p.)), intubated endotracheally and ventilated with 3 cm H2O positive-end expiratory pressure. Adequacy of anaesthesia was monitored using corneal and withdrawal reflexes. Ventilation frequency was kept at 110 breaths per minute with tidal volume between 125-150 μL. A thoracotomy was performed and the heart exposed by stripping the pericardium. A prominent branch of the left anterior descending coronary artery (LAD) was surrounded by a 7-0 Prolene suture that was then passed through a small plastic tube. Ischaemia was induced by tightening the tubing against the heart surface. To assess metabolites during IR in vivo, mice were divided into three groups: 30 min ischaemia, 30 min ischaemia plus 5 min reperfusion and 30 min sham-operation in which the suture was placed but the LAD was not occluded. At the end of each protocol tissue was removed from the at risk and peripheral areas of the heart, selected visually by comparing white versus red tissue, and snap-frozen in liquid nitrogen. […] Infarct size was assessed after 30 min of ischaemia followed by 120 min reperfusion using 2% triphenyltetrazolium chloride staining and is expressed as a percentage of the risk zone^33. […]

For data set [3], the system named is adult primary rat cardiomyocytes. Briefly: Mitochondrial membrane potential (TMRM) in primary cardiomyocytes during in situ IR. The note with it: 4 mM in ischaemic buffer. The format is cell-based. As for the experimental part: FIG. 15: Tracking mitochondrial membrane potential in primary cardiomyocytes during in situ IR. Primary rat cardiomyocytes were subjected to 40 min ischaemia and reoxygenation and mitochondrial membrane potential was tracked throughout the experiment by measurement of tetramethylrhoadmine (TMRM) fluorescence. […] Average traces from at least three replicate experiments are shown. (a) TMRM signal throughout the entire experiment.
Male Sprague-Dawley rats (300-370 g) were terminally anaesthetised via IP injections of 200 mg/kg sodium pentobarbitone and 330 U/kg heparin. Hearts were excised and retrograde perfused on a Langendorff-perfusion system with 13 mL/min oxygenated KH buffer at 37° C. […]
Cells were imaged within 36 hours of plating. […] Simulated ischaemia was achieved by replacing the buffer with a pre-gassed, hypoxic recording buffer simulating ischaemia (as above but lacking glucose and containing 10 mM sodium lactate, 14.8 mM KCl; pH 6.4) and by covering the heated stage with a transparent, gas-impermeant lid, forming a small chamber into which argon was forced to maintain hypoxia. pO2 was routinely measured as <2.0 mm Hg during simulated ischaemia. […]
Mitochondrial membrane potential was measured using tetramethylrhodamine, methyl ester (TMRM, Life Technologies) in dequench mode. […] TMRM fluorescence was excited at 543 nm and emission was collected using a LP 560 filter.

As for `COC(=O)CC(=O)OC` [dimethyl malonate], in data set [1], the LD50 result is on record as “approximately 5 gms per kilogram”. In data set [2], the “protection against cardiac IR injury (infarct size)” value is given as “protective”. Further, the “rate of mitochondrial polarisation upon reperfusion” value in data set [3] is on record as “diminished the rate of mitochondrial polarisation upon reperfusion”.
